These results are taken from patent US6602487B1, “Methods and tests for producing and for inhibiting coronary artery vasospasms” (Dimera Incorporated, priority 1997, dated 2003).

Values joined by “and” are separate entries in the source; they are usually repeats but may differ in a detail not shown here. Equal entries are not always repeated.

The test system of series [1] is coronary arteries. Nature of the series: Drug-induced (S+U) coronary vasospasm in ovariectomized monkeys with E2 plus P or MPA implants. Type of series: in vivo, rhesus monkeys (Macaca mulatta). As to the method: Twelve rhesus monkeys (Macaca mulatta), aged 8 to 16 years and with weights of 5-7 kg, were ovariectomized at least 3 months prior to beginning of the study and selected randomly for one of two treatments. After documenting the lack of cardiovascular disease or previous exposure to atherogenic diet and after a normal physical examination (including blood chemistry), monkeys received subdermal sylastic implants containing 200 mg of E2. Two weeks later, sylastic implants containing either 400 mg of P or 400 mg of MPA were additionally implanted. All steroids were purchased from Steraloids (Wilton, N.H.). Both estrogen and progestin implants, providing sustained release steroids, remained in place through the catheterization study 6 weeks after beginning the study. Venous blood sample (5 ml) were collected just prior to beginning the study at weekly intervals for measurements of serum levels of E2, P, and MPA. Target levels of 80-160 pg/ml for E2, 4000-8000 pg/ml for P, and 400-800 pg/ml for MPA were based on levels that are effective by reproductive system indices in women and monkeys. Levels were measured in blood serum at catheterization by specific radio-immunoassays.
Angiography was carried out under isoflurane (0.75-1.25%) general anesthesia with 70% O2 and 30% N2O, and body temperature supported with a heating pad. After ketamine sedation (10 mg/kg) and endotracheal tube placement, both femoral arteries were cannulated for simultaneous measurement of systemic blood pressure and coronary catheterization. Intravenous anticoagulation with 1000 units of heparin and fluid replacement with 75-150 ml of lactated Ringer's solution, and if needed 10-50 ml of dextran, to reach a minimum control diastolic blood pressure of 60 mm Hg.
Coronary arteries (left anterior descending or left circumflex) of the monkeys were catheterized and agents injected as described above in Example 1.
Statistical analysis was carried out by Student's t-test (non-paired) or Chi-square, with the p<0.05 level accepted as significant.
All monkeys were treated with estradiol 17β via sylastic implants for the entire treatment period. P or MPA was added during the last 2 weeks as a second sylastic implant, to simulate the luteal phase (P) or hormone replacement therapy (MPA). All steroid implants were left in place, including during angiography. Steroid measurements were made by RIA on serum samples taken just before angiography. Indicates significant differences between P and MPA at p 0.05 (N=6 for each group).

For series [2] the following is noted: vaginal administration; cited from earlier work.
Series [3] concerns coronary artery vascular muscle cells (VMC). As to the kind of experiment: Subcellular Ca2+ and PKC localization and contraction of coronary VMC stimulated with serotonin plus U46619. Conditions: VMC from treated monkeys, 10 μM serotonin plus 100 nM U46619. The class given is cell-based, rhesus monkeys. An excerpt:
Single VMCs from the left anterior descending, circumflex, and right coronary arteries of adult rhesus monkeys were isolated and studied both as freshly dispersed and as primary cultures. The short-term primary cultured cells (never passaged) maintain the characteristics of the source tissue for 2 3 weeks, including contraction, relaxation, receptors, and membrane electrical properties. VMCs were dissociated with collagenase and protease enzymes in a potassium glutamate solution (KG) that prevent loading with Na^+, Ca^2+, or Cl^− and results in a high proportion of viable, contracting cells (Self, D. A., et al., J. Vasc. Res. 31:359-366 (1994); Rusch., N. J., et al., Physiology and Pathophysiology of the Heart, 999-1010 (1995)). The cells prepared for culture were seeded at low density in cardiovascular culture solution for mammals, fifth generation (CV5M) on glass coverslips to facilitate selection of individual cells. VMC were used for experiments 7-14 days after attaching to coverslips.
Freshly dispersed or primary cultured VMCs on glass coverslips were placed in a chamber of laminar flow design and observed with a Zeiss Plan Neofluar 25×/0.80 water immersion objective. Ionic solution for mammals version 2 (ISM2) was continuously pumped through the chamber (at 1 ml/minute) to provide continuous equilibration and washout of drugs. After a 15 minutes equilibration period, VMC were loaded for 15 minutes at room temperature with 3 μM fluo 3 (Molecular Probes, Inc.) for sensing Ca^2− and for 10 minutes with […] hypericin (LC Laboratories) for reporting PKC. Individual VMC were stimulated by adding 20 μl of 10 μM serotonin plus 100 nM U46619 over the individual cell. After 15 seconds under no-flow conditions, continuous flow of ISM2 was reinstated and a chamber volume of approximately 300 μl was maintained. Fluorescent images were taken at 1, 2, 5, 10, 15, 20 and 30 minutes after stimulation for Ca^2+ and at 3, 4, 9, 16, 21 and 31 minutes for PKC to evaluate subcellular distribution of these signals, and to determine VMC contraction.
ISM2 contains (in mM): 100 NaCl, 4 NaHCO3, 0.5 NaH2PO4, 4.7 KCl, 1.8 CaCl2, 0.41 […], 50 HEPES (pH 7.37), and 5.5 dextrose, KG solution consists of (in mM); 140 K-glutamate, 16 NaHCO3, 0.5 NaH2PO4, 30 HEPES, and 16.5 dextrose at pH 7.3. CVSM consists of. 4.0 mM L-glutamine, 10 μg/ml ciprofloxacin (Miles Pentex/Bayer Corporation), 50 mM HEPES (pH 7.3), and 16 mM NaHCO3 dissolved in 85% MEM-Earle's'salts and 15% horse serum. Phenol red, known to have estrogenic activity, was omitted from all solutions.
As discussed above, the monkeys were implanted with subdermal sylastic tubing containing estrogen (E) progesterone (P) or MPA. The first step in each of the three groups was to implant sylastic tubing containing E. Two weeks later, either P or MPA were additionally implanted and maintained for another 4 weeks (6 weeks total). In the withdrawal (W) group, the E tube was withdrawn, and no tubes were implanted for the last 4 weeks.

The mark [4] stands for this setting: minimum, 5-20 minutes after IC S + U.

`CC(=O)[C@H]1CC[C@H]2[C@@H]3CCC4=CC(=O)CC[C@]4(C)[C@H]3CC[C@]12C` [P, progesterone]: in series [1] (0.18 μg ACh IC), the “diameter in dilator response to low dose ACh” value is given as 1.20±0.25 mm. Besides, the “Vasospasms (incidence)” value in series [1] (S+U IC challenges, E2 implant plus P or MPA implant, N=6 per group) was 0 of 6 and 0/6. The “reduction of minimum (φ) from controls after S+U” value in series [1] (S+U stimulation) came out at 67%. Also, in series [1] (before S + U), the “Control DBP in mm Hg” value came to 60 ± 5 mm Hg and the “Control Heart rate in bpm” value was 130 ± 24 bpm. Further, the “S + U (φ) minimum” value in series [1] (minimum diameter 3 to 5 minutes after IC S + U) was determined as 0.37±0.02 mm. In series [1] (setting [4]), the “S + U stim DBP in min Hg” value is on record as 30 ± 12 min Hg, the “S + U stim SBP in mm Hg” value came to 51 ± 18 mm Hg and the “S + U stim heart rate in bpm” value is 66 ± 34 bpm. In addition, the “Control (φ) in mm” value in series [1] (proximal LAD or left circumflex diameter under control conditions, E2+P or E2+MPA group) was found to be 1.14±0.21 mm. For the same compound, the “local concentration of progesterone in the endometrial tissue” value in series [2] was ~7 nanograms/ml. Also, in series [3] (FIG. 3), the “whole cell Ca2+ (fluo 3) fluorescence after stimulation” value is “increased significantly over control only at 1 minute”. Moreover, in series [3] (FIG. 4), the “peripheral-to-central Ca2+ ratio after stimulation” value is reported as “too small to be significant”. In addition, the “PKC signal after stimulation” value in series [3] (FIG. 5) is given as “failed to change PKC loci or intensity significantly from control values”. Moreover, the “peripheral-to-central PKC ratio after stimulation” value in series [3] (FIG. 6) is “never significantly different from control”. In series [3] (FIG. 7), the “VMC contractions (cell width) after stimulation” value was “significantly different from 0-min controls only at 3 and 4 minutes”.
